pEC50: −log10 of the molar value.
Experiments:
[1] = test system: soybean; experiment: Soil drought experiment, soybean; type: in vivo; details: 50 μM
Description: Only one plant was contained in each pot. All soybean plants were long-day cultured at 26° C. Watering was stopped after the plant had three leaves in each of three groups of leaves and the plants with consistent growth were selected for drought treatment. As for corn, watering was stopped during the small trumpet period for drought treatment. […] After a week, the watering was resumed. Soybeans and cotton used in leaf transpiration experiments for compound 0720B were also used for soil drought experiments. Each pot contained only one plant and was filled with the same weight of soil to reduce experimental errors. All of the soybean plants were grown at 26° C. for long-day culture. 16 days after seeding, watering was stopped and the plants with consistent growth were selected for drought treatment. […] Cotton drought experiments were similar to that of the soybean. 23 days after seeding, the watering was stopped, and the plants with consistent growth were selected for drought treatment. […] After 10 days of drought, the photos were taken.

[2] = biological target: T1, PYR1 + HAB1 (Arabidopsis thaliana, UniProt O49686); experiment: AlphaScreen experiment, PYR1 + HAB1; type: binding; details: column 2; number in brackets; read-out: Half maximum effect concentration EC50 (PYR1 + HAB1)
T1 sequence (O49686 1-191): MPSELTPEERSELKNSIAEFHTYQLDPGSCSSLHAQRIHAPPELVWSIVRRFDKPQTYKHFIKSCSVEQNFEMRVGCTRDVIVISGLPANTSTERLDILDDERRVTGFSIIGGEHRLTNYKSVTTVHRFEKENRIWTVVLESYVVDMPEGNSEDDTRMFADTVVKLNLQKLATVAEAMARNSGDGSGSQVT
T1 sequence (Q9CAJ0 172-511 partner): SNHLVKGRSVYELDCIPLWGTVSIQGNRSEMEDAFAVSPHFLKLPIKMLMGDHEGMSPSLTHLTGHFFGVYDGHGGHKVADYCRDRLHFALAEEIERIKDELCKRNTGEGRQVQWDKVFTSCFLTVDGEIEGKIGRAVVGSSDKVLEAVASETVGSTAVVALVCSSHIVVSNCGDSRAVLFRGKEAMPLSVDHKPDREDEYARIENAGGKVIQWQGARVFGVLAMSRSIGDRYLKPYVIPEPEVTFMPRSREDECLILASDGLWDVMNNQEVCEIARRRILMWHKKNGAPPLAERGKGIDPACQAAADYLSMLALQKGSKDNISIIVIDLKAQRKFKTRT
Description: (§1) After incubating for 1.5 hours at room temperature in the dark, it was placed into an Envision Plate Reader (available from Perkin Elmer) under the programmed AlphaScreen procedure for readings.

[3] = test system: SD rat; experiment: Maximum tolerated dose, single oral gavage; type: in vivo; details: 5000 mg/kg, male and female rats
Description: (§2) The test substance used in the experiment was AMX compound 1127.
(§3) In the maximum tolerated dose of tested substance in single oral gavage experiment in SD rat, 8 SD rats were randomly divided into two groups, with […]. After a single oral gavage administration, rats were observed continuously for 14 days and dissected on the 15th day. The following indicators were evaluated: clinical observation, body weight and pathology examination (macroscopic morphology).

[4] = Maximum tolerated dose, single oral gavage; type: in vivo; details: both sexes, rat, in vivo, 5000 mg/kg, SD rats
Description: as §2, §3

[5] = test system: Arabidopsis ABA synthesis defective mutant aba2-1; type: in vivo, Arabidopsis thaliana; details: 5 μM sprayed; after 4 days; vs DMSO
[6] = test system: Arabidopsis Col-0 ecotype; experiment: Soil drought experiment, Arabidopsis; type: in vivo, Arabidopsis thaliana
Description: Seeds of Arabidopsis Col-0 ecotype were sterilized with NaClO and then sown on ½ MS solid medium at 4° C. for 3 days of vernalization. After 6 days of growing, the well-grown seedlings having uniform size were selected and transferred into 8×7×6 cm^3 pots. Each pot was filled with the same weight of soil and the same number of plants (six plants) was planted to reduce experimental error. All the pots were subjected to a short-day culture at 22° C. After two weeks, watering was stopped for drought treatment. […] The position of the flowerpot was changed every day during the process of drought to reduce the error caused by environmental factors. During the whole drought period, the solution was sprayed twice in total and photos were recorded regularly. The watering was resumed in about three weeks.

[7] = biological target: T2, PYL7 + HAB1 (Arabidopsis thaliana, UniProt Q1ECF1); experiment: AlphaScreen experiment, PYL7 + HAB1; type: binding; details: number in brackets; read-out: Half maximum effect concentration EC50 (PYL7 + HAB1)
T2 construct: made in house; host or cells: E. coli BL21 (DE3)
T2 sequence (Q1ECF1 1-211): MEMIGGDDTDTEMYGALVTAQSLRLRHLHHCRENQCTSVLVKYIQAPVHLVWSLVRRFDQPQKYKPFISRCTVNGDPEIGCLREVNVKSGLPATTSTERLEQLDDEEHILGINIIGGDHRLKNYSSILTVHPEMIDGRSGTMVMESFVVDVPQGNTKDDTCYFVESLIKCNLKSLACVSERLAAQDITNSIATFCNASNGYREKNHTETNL
T2 sequence (Q9CAJ0 172-511 partner limits assumed): T1 sequence (Q9CAJ0 172-511 partner)
Description: as §1

[8] = test system: soybean GmPYL3 and GmPYL6 + Arabidopsis AtHAB1; experiment: AlphaScreen experiment with soybean GmPYL receptors; type: binding; details: FIG. 9
Description: as §1

[9] = test system: Arabidopsis thaliana Col-0 ecotype seeds; experiment: Seed germination, Col-0; type: in vivo; details: 1 μM
Source text: Two lines of plant were sown simultaneously on a single medium of 6 cm diameter, with 15 seeds sown for each line and 4 replicates for each compound. […]

Structure (SMILES): CCCN1C(=O)CCc2cc(NS(=O)(=O)Cc3c(F)c(F)c(C)c(F)c3F)ccc21 [Compound 1127]
- growth ([1]; a week of drought, one month after rewatering): grew significantly better than the plants sprayed with DMSO (control) and sprayed with 50 μM ABA
- survival rate ([1]; after rewatering): higher than that in the above two groups
- pEC50 [2]: 7.82
- clinical observation, body weight and macroscopic morphological observation of tissues/organs [3]: no drug-related changes were observed
- MTD at 14 days [4]: > 5000 mg/kg
- leaf temperature [5]: still higher than that in the control group
- plant survival ([6]; 5 μM sprayed, 18 days after drought): still survived
- plant growth ([6]; 5 μM sprayed, after 20 days of drought): still maintained good growth
- drought resistance compared with compound with fewer halogen atoms (0604c) ([6]; same concentration, after 2 weeks of drought, FIG. 8c): stronger drought resistance
- pEC50 [7]: 8.00
- affinities for soybean GmPYL proteins compared with ABA [8]: significantly higher affinities
- inhibition effect on germination of Col-0 ecotype seeds compared with control compound [9]: significantly better inhibition effect
- germination of Col-0 ecotype seeds ([9]; six days after seeding): could still inhibit germination of Col-0 ecotype seeds
